Values quoted from earlier work as cited in US6110491A, “Compound-loaded liposomes and methods for their preparation” (Hermes Biosciences, Inc., priority 1997, dated 2000).
In brackets after ≈: the same amount, converted by molar mass. Read-outs that look alike come from different tables or passages of the source.

Settings: cited from earlier work; for pH-dependent solubility: 37° C.

In the case of `Nc1cc(-c2ccncc2)c[nH]c1=O` [amrinone], the pH dependent solubility (pH 4.1) is given as 25 mg/ml, the pH dependent solubility (pH 6) is given as 0.9 mg/ml and the pH dependent solubility (pH 8) is given as 0.9 mg/ml.

For `CCn1cc(C(=O)O)c(=O)c2cc(F)c(N3CCNCC3)cc21` [norfloxacin], the pH-dependent solubility (pH 6.5) is given as 2.8 mg/ml, the pH-dependent solubility (pH 7.0) is given as 1.5 mg/ml and the pH-dependent solubility (pH 8.0) is given as 1.9 mg/ml. For the same compound, the pH-dependent solubility (pH <5.5) was greater than 40 mg/ml.

In the case of `Nc1nc(O)c2ncn(COC(CO)CO)c2n1` [gancyclovir], the solubility in water (alkaline pH) is listed as greater than 100 mg/mL and the solubility in water (pH 7.4) is listed as 2.5 mg/mL (≈ 9.79 mM).

In the case of `CC(C)Cc1ccc(C(C)C(=O)O)cc1` (centres unmarked) [ibuprofen], the “solubility (in words)” value (alkaline pH) is listed as “soluble at alkaline pH” and the “solubility (in words)” value (neutral pH) is listed as “poorly soluble at neutral pH”.
